Laboratory results reported in ChEMBL document CHEMBL1909046, “DrugMatrix in vitro pharmacology data”.
Where a SMILES comes first, the peptide text is derived from it. Bridges are numbered along the chain shown (N, C = ends). [ ]: non-standard residue; d: D form. The star is where a group is joined. Ileψ(thiazoline)Cys = CC[C@H](C)[C@H](N)C1=N[C@H](C(=O)*)CS1; dOrn = NCCC[C@@H](N)C(=O)O

Columns and labels:
[1] = DRUGMATRIX: Glutamate, Kainate radioligand binding (ligand: [3H] Kainic acid); format: cell membranes, Rattus norvegicus, Wistar, Brain, Membrane; conditions: Not Active = under 50% inhibition at 10 µM
Substance-K receptor = target: T1, Substance-K receptor (Homo sapiens, UniProt P21452); format: cell membranes, CHO, Membrane; note: in other assays of this panel Not Active means under 50% inhibition at 10 µM
T1 sequence (P21452 whole entry): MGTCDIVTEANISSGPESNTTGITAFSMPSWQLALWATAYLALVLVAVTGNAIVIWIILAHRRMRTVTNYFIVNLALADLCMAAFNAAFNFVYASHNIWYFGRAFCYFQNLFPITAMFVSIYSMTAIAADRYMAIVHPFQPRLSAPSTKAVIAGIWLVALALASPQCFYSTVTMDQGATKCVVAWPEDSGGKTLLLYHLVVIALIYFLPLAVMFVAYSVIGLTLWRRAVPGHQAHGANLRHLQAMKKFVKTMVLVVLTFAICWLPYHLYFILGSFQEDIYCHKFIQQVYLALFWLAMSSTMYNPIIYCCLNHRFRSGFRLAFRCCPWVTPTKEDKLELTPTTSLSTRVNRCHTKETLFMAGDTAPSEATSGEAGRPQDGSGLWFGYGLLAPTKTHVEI

[2] = target: T2, Cysteinyl leukotriene receptor 1 (Homo sapiens, UniProt Q9Y271); format: cell membranes, CHO-K1, Membrane; conditions: cho-k1; note: in other assays of this panel Not Active means under 50% inhibition at 10 µM
T2 sequence (Q9Y271 whole entry): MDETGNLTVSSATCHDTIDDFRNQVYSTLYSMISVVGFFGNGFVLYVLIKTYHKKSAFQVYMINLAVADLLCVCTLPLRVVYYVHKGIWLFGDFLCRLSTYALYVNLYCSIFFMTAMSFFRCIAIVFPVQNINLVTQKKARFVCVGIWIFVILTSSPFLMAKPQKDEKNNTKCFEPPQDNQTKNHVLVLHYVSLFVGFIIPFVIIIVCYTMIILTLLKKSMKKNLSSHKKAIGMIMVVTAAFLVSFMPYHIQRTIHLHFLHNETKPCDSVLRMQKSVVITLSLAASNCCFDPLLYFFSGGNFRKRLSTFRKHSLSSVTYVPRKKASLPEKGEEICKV

[3] = DRUGMATRIX: Calcium Channel Type L, Benzothiazepine radioligand binding (ligand: [3H] Diltiazem); format: cell membranes, Rattus norvegicus, Wistar, Brain, Membrane; conditions: Not Active = under 50% inhibition at 10 µM
[4] = target: Receptor tyrosine-protein kinase erbB-2 (Homo sapiens, UniProt P04626); test: biochemical; format: cell-based, Insect cells;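 note: inhibition of HER2 kinase enzyme activity, measured with Poly(Glu:Tyr) as the phosphorylation substrate; in other assays of this panel Not Active means under 50% inhibition at 10 µM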
Receptor tyrosine-protein kinase erbB-2, sequence (P04626 whole entry): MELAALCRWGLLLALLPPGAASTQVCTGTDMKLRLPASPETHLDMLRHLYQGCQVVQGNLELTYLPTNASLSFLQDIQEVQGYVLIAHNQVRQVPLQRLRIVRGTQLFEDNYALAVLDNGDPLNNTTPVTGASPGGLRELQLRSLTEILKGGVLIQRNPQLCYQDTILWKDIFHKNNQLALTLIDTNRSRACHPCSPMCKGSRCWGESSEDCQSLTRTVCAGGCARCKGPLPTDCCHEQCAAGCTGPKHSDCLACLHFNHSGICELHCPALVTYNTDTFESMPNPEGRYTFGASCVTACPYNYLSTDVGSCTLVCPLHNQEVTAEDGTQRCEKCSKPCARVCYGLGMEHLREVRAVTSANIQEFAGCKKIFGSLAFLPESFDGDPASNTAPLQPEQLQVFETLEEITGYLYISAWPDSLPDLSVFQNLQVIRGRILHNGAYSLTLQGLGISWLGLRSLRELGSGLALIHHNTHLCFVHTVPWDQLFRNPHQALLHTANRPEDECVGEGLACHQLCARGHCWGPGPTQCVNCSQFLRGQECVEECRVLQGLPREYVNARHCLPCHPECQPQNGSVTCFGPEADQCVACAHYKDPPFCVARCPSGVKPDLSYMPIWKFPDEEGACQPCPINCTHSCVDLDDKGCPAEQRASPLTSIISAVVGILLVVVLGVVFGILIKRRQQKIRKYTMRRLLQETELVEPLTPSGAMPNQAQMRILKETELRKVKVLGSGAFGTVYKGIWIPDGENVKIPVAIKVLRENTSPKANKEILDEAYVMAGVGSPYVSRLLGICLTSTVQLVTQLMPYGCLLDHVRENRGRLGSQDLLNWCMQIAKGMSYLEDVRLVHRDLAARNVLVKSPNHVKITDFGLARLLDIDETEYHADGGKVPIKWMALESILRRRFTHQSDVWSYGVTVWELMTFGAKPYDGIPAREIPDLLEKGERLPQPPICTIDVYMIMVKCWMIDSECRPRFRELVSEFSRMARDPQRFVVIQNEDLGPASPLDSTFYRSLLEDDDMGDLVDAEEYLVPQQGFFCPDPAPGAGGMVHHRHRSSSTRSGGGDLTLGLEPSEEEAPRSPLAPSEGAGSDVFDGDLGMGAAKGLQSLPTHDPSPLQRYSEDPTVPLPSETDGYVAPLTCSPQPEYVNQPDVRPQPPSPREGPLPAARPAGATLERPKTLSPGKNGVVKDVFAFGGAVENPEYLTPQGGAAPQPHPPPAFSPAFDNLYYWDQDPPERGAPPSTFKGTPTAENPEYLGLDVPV

[5] = target: Protein phosphatase 3 catalytic subunit alpha (Homo sapiens, UniProt Q08209); set-up: species or system Escherichia coli;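 note: inhibition of calcineurin (PP2B) enzyme activity, measured with DiFMUP as the substrate; in other assays of this panel Not Active means under 50% inhibition at 10 µM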
[6] = target: 5-hydroxytryptamine receptor 4 (Cavia porcellus, UniProt O70528); format: cell membranes, Dunkin-Hartley, Striatum, Membrane; note: in other assays of this panel Not Active means under 50% inhibition at 10 µM
5-hydroxytryptamine receptor 4, sequence (O70528 whole entry): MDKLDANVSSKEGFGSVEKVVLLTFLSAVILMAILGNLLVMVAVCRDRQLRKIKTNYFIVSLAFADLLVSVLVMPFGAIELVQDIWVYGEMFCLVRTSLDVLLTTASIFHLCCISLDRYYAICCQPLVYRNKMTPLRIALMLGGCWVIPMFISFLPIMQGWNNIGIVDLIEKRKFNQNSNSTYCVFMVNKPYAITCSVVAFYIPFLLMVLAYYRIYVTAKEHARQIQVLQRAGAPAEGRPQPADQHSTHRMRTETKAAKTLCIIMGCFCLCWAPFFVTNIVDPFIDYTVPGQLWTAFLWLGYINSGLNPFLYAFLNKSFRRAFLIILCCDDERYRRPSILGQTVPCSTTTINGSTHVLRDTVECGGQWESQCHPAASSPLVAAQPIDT

[7] = target: T3, Muscarinic acetylcholine receptor M2 (Homo sapiens, UniProt P08172); format: cell membranes, CHO-K1, Membrane; conditions: cho-k1; note: in other assays of this panel Not Active means under 50% inhibition at 10 µM
T3 sequence (P08172 whole entry): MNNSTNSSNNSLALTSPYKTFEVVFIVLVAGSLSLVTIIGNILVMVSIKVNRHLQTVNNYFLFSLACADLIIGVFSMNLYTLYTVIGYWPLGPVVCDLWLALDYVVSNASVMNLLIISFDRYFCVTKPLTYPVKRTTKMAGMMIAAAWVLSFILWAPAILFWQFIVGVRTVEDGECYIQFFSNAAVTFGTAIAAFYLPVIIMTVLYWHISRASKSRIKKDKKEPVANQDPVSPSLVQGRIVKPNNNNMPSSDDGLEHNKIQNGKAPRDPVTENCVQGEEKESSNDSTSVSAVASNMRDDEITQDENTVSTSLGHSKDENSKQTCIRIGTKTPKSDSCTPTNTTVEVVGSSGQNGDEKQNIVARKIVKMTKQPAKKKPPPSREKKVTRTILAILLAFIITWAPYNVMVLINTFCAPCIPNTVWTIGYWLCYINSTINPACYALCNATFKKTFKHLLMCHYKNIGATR

[8] = target: Beta-1 adrenergic receptor (Homo sapiens, UniProt P08588); test: DRUGMATRIX: Adrenergic beta1 radioligand binding (ligand: [125I] Cyanopindolol); format: cell membranes, CHO-K1, Membrane; conditions: Not Active = under 50% inhibition at 10 µM
Beta-1 adrenergic receptor, sequence (P08588 whole entry): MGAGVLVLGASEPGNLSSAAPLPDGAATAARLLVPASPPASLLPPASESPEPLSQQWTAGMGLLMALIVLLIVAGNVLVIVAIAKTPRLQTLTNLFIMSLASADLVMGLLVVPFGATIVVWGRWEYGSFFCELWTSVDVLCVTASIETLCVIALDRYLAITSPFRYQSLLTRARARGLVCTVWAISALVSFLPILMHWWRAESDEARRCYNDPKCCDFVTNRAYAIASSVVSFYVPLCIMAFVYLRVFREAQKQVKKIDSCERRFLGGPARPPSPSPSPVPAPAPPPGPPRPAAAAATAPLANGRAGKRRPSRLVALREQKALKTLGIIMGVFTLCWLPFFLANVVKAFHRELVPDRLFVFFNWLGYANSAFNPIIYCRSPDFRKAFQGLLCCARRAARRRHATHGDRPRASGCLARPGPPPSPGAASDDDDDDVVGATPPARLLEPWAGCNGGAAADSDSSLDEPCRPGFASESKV

SMILES | IC50 [1] | Ki [1] | IC50 (Substance-K receptor; cho) | IC50 [2] | IC50 [3] | Ki [3] | IC50 ([4]; insect cells) | IC50 [5] | IC50 [6] | IC50 [7] | IC50 ([8]; cho-k1) | IC50 ([8]; read-out: IC50) [µM] | Ki ([8]; read-out: Ki) [µM] | IC50 ([6]; read-out: IC50) [µM] | Ki ([6]; read-out: Ki) [µM] | IC50 ([4]; read-out: IC50) [µM] | IC50 (Substance-K receptor; read-out: IC50) [µM] | Ki (Substance-K receptor; read-out: Ki) [µM]
N=C(N)NCCCCNC(=N)N.O=S(=O)(O)O [ARCAINE SULFATE] | Not Active | Not Active | Not Active | Not Active | Not Active | Not Active | Not Active | Not Active | Not Active | Not Active | – | – | – | – | – | – | – | –
CC(=O)OCC(=O)[C@@]1(OC(C)=O)[C@@H](C)C[C@H]2[C@@H]3C[C@H](F)C4=CC(=O)C=C[C@]4(C)[C@@]3(F)[C@@H](O)C[C@@]21C [DIFLORASONE DIACETATE] | Not Active | Not Active | Not Active | Not Active | Not Active | Not Active | Not Active | Not Active | Not Active | Not Active | Not Active | – | – | – | – | – | – | –
O=C1OCCN1/N=C/c1ccc([N+](=O)[O-])o1 [FURAZOLIDONE] | Not Active | Not Active | Not Active | Not Active | Not Active | Not Active | Not Active | Not Active | Not Active | Not Active | Not Active | – | – | – | – | – | – | –
CCCC[C@@H](CC)COC(=O)c1ccccc1C(=O)OC[C@@H](CC)CCCC [BIS(2-ETHYLHEXYL)PHTHALATE] | Not Active | Not Active | Not Active | Not Active | Not Active | Not Active | Not Active | Not Active | Not Active | Not Active | Not Active | – | – | – | – | – | – | –
CC[N+](CC)(CC)CCOc1cccc(OCC[N+](CC)(CC)CC)c1OCC[N+](CC)(CC)CC.[I-].[I-].[I-] [GALLAMINE TRIETHIODIDE] | Not Active | Not Active | Not Active | Not Active | Not Active | Not Active | Not Active | Not Active | Not Active | – | Not Active | – | – | – | – | – | – | –
NS(=O)(=O)c1cc2c(cc1Cl)NCNS2(=O)=O [HYDROCHLOROTHIAZIDE] | Not Active | Not Active | Not Active | Not Active | Not Active | Not Active | Not Active | Not Active | Not Active | Not Active | Not Active | – | – | – | – | – | – | –
CC[C@H](C)[C@H](N)C1=N[C@H](C(=O)N[C@@H](CC(C)C)C(=O)N[C@H](CCC(=O)O)C(=O)N[C@H](C(=O)N[C@H]2CCCCNC(=O)[C@H](CC(N)=O)NC(=O)[C@@H](CC(=O)O)NC(=O)[C@H](Cc3cnc[nH]3)NC(=O)[C@@H](Cc3ccccc3)NC(=O)[C@H]([C@@H](C)CC)NC(=O)[C@@H](CCCN)NC2=O)[C@@H](C)CC)CS1 [BACITRACIN] ({Ileψ(thiazoline)Cys}-L[dE]IK[dOrn]I[dF]H[dD]N; lactam 4-C) | Not Active | Not Active | Not Active | Not Active | Not Active | Not Active | Not Active | Not Active | Not Active | Not Active | Not Active | – | – | – | – | – | – | –
COC(=O)[C@H](c1ccccc1Cl)N1CCc2sccc2C1 [CLOPIDOGREL] | Not Active | Not Active | Not Active | Not Active | Not Active | Not Active | Not Active | Not Active | Not Active | Not Active | – | – | – | – | – | – | – | –
CN1C[C@H](C(=O)N[C@]2(C)O[C@@]3(O)[C@@H]4CCCN4C(=O)[C@H](Cc4ccccc4)N3C2=O)C=C2c3cccc4[nH]cc(c34)C[C@H]21 [ERGOTAMINE] | Not Active | Not Active | Not Active | Not Active | Not Active | Not Active | Not Active | Not Active | – | Not Active | – | 4.14 | 2.39 | 1.58 | 0.264 | – | – | –
c1ccc2c(c1)cc1ccc3cccc4ccc2c1c34 | Not Active | Not Active | Not Active | Not Active | Not Active | Not Active | – | Not Active | Not Active | Not Active | Not Active | – | – | – | – | 41.5 | – | –
CCOC(=O)c1ccc(N)cc1 [BENZOCAINE] | Not Active | Not Active | Not Active | Not Active | Not Active | Not Active | Not Active | Not Active | Not Active | Not Active | Not Active | – | – | – | – | – | – | –
Oc1cccc2cccnc12 [OXYQUINOLINE] | Not Active | Not Active | Not Active | Not Active | Not Active | Not Active | Not Active | Not Active | Not Active | Not Active | Not Active | – | – | – | – | – | – | –
O=C1CN=C(c2ccccc2)c2cc([N+](=O)[O-])ccc2N1 [NITRAZEPAM] | Not Active | Not Active | Not Active | Not Active | Not Active | Not Active | Not Active | Not Active | Not Active | Not Active | Not Active | – | – | – | – | – | – | –
CC1=Nc2ccc(Cl)cc2S(=O)(=O)N1 [DIAZOXIDE] | Not Active | Not Active | Not Active | Not Active | Not Active | Not Active | Not Active | Not Active | Not Active | Not Active | Not Active | – | – | – | – | – | – | –
CCCCCCCCCc1ccc(O)cc1 [4-NONYLPHENOL] | Not Active | Not Active | – | Not Active | Not Active | Not Active | Not Active | Not Active | Not Active | Not Active | Not Active | – | – | – | – | – | 4.51 | 1.51
